Our source for the carcinogen call values is PubChem BioAssay AID1259411 (Chemical Carcinogenesis Research Information System (CCRIS), 2018).

The test system of this data set is rodent carcinogenicity bioassays, tumor incidence. Description: CCRIS carcinogenicity studies. Summed up:
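NCI-built, expert-reviewed records of carcinogenicity and related test outcomes (mutagenicity, tumor promotion/inhibition) compiled from published and report sources, historical span 1985-2011, not updated.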

Active and inactive are the calls of the source. The rule behind the calls is not given here.

Turning to `[Cl][Hg][Cl]`, the carcinogen call by setting is: (Species: MOUSE, Strain/Sex: B6C3F1/FEMALE, Route: GAVAGE, Dose: 0, 5, 10 MG/KG IN DEIONIZED WATER 5 D/WK FOR 103-104 WK (STUDY DURATION: 104 WK), Dose: 0, 5, 10 MG/KG IN DEIONIZED WATER 5 D/WK FOR 103-104 WK (STUDY DURATION: 104 WK)) “inactive; negative”; (Species: MOUSE, Strain/Sex: B6C3F1/MALE, Route: GAVAGE, Dose: 0, 5, 10 MG/KG IN DEIONIZED WATER 5 D/WK FOR 103-104 WK (STUDY DURATION: 104 WK), Dose: 0, 5, 10 MG/KG IN DEIONIZED WATER 5 D/WK FOR 103-104 WK (STUDY DURATION: 104 WK), Tumor Site: Type of Lesion: KIDNEY (RENAL TUBLE): ADENOMA, ADENOCARCINOMA) “equivocal”; (Species: MOUSE, Strain/Sex: SWISS/FEMALE, Route: ORAL, Dose: 0, 5 PPM (HG) IN DRINKING WATER FOR DURATION OF STUDY (STUDY DURATION: LIFE SPAN)) “inactive; negative”; (Species: MOUSE, Strain/Sex: SWISS/MALE, Route: ORAL, Dose: 0, 5 PPM (HG) IN DRINKING WATER FOR DURATION OF STUDY (STUDY DURATION: LIFE SPAN)) “inactive; negative”; (Species: RAT, Strain/Sex: F344/FEMALE, Route: GAVAGE, Dose: 0, 2.5, 5 MG/KG IN DEIONIZED WATER 5 D/WK FOR 103-104 WK (STUDY DURATION: 104 WK), Dose: 0, 2.5, 5 MG/KG IN DEIONIZED WATER 5 D/WK FOR 103-104 WK (STUDY DURATION: 104 WK), Tumor Site: Type of Lesion: FORESTOMACH: SQUAMOUS CELL PAPILLOMA) “equivocal”; (Species: RAT, Strain/Sex: F344/MALE, Route: GAVAGE, Dose: 0, 2.5, 5 MG/KG IN DEIONIZED WATER 5 D/WK FOR 103-104 WK (STUDY DURATION: 104 WK), Dose: 0, 2.5, 5 MG/KG IN DEIONIZED WATER 5 D/WK FOR 103-104 WK (STUDY DURATION: 104 WK), Tumor Site: Type of Lesion: THYROID GLAND: FOLLICULAR CELL CARCINOMA, FOLLICULAR CELL CARCINOMA OR ADENOMA, FORESTOMACH: SQUAMOUS CELL PAPILLOMA) “active; positive”.
In the case of `COP(=S)(OC)Oc1ccc(SC)c(C)c1`, the carcinogen call was “inactive; negative” (Species: MOUSE, Strain/Sex: B6C3F1/FEMALE, Route: ORAL, Dose: 0, 10, 20 PPM IN DIET, Dose: 0, 10, 20 PPM IN DIET); “inactive; negative” (Species: Mouse, Strain/Sex: B6C3F1/Female (60/group), Route: Oral, Dose: 0, 0.1, 1, 5, 25 ppm in diet for up to 2 yr, study duration 2 yr, Dose: 0, 0.1, 1, 5, 25 ppm in diet for up to 2 yr, study duration 2 yr); “inactive; negative” (Species: Mouse, Strain/Sex: B6C3F1/Male (60/group), Route: Oral, Dose: 0, 0.1, 1, 5, 25 ppm in diet for up to 2 yr, study duration 2 yr, Dose: 0, 0.1, 1, 5, 25 ppm in diet for up to 2 yr, study duration 2 yr); “inactive; negative” (Species: RAT, Strain/Sex: F344/MALE, Route: ORAL, Dose: 0, 10, 20 PPM IN DIET, Dose: 0, 10, 20 PPM IN DIET); “inactive; negative” (Species: Rat, Strain/Sex: Fischer 344/Female (50/Group), Route: Oral, Dose: 0 (corn oil), 5, 20, 100 ppm in diet for 2 yr, study duration 2 yr, Dose: 0 (corn oil), 5, 20, 100 ppm in diet for 2 yr, study duration 2 yr); “inactive; negative” (Species: Rat, Strain/Sex: Fischer 344/Male (50/Group), Route: Oral, Dose: 0 (corn oil), 5, 20, 100 ppm in diet for 2 yr, study duration 2 yr, Dose: 0 (corn oil), 5, 20, 100 ppm in diet for 2 yr, study duration 2 yr).
For the compound `ClC(Cl)=C(Cl)Cl`, the carcinogen call runs as follows: (Species: MOUSE, Strain/Sex: B6C3F1/FEMALE, Route: GAVAGE, Dose: 0, 386, 772 MG/KG, TWA FOR 78 WKS, Dose: 0, 386, 772 MG/KG, TWA FOR 78 WKS, Tumor Site: Type of Lesion: LIVER: HEPATOCELLULAR CARCINOMA) “active; positive”; (Species: MOUSE, Strain/Sex: B6C3F1/FEMALE, Route: INHALATION, Dose: 0, 100, 200 PPM 6 HR/D, 5 D/WK FOR 103 WK, Dose: 0, 100, 200 PPM 6 HR/D, 5 D/WK FOR 103 WK, Tumor Site: Type of Lesion: LIVER: HEPATOCELLULAR CARCINOMA, HEPATOCELLULAR ADENOMA OR CARCINOMA) “active; positive”; (Species: MOUSE, Strain/Sex: B6C3F1/MALE, Route: GAVAGE, Dose: 0, 536, 1072 MG/KG, TWA FOR 78 WKS, Dose: 0, 536, 1072 MG/KG, TWA FOR 78 WKS, Tumor Site: Type of Lesion: LIVER: HEPATOCELLULAR CARCINOMA) “active; positive”; (Species: MOUSE, Strain/Sex: B6C3F1/MALE, Route: INHALATION, Dose: 0, 100, 200 PPM 6 HR/D, 5 D/WK FOR 103 WK, Dose: 0, 100, 200 PPM 6 HR/D, 5 D/WK FOR 103 WK, Tumor Site: Type of Lesion: LIVER: HEPATOCELLULAR ADENOMA, HEPATOCELLULAR CARCINOMA) “active; positive”; (Species: RAT, Strain/Sex: F344/FEMALE, Route: INHALATION, Dose: 0, 200, 400 PPM 6 HR/D, 5 D/WK FOR 103 WK, Dose: 0, 200, 400 PPM 6 HR/D, 5 D/WK FOR 103 WK, Tumor Site: Type of Lesion: HEMATOPOIETIC SYSTEM: MONONUCLEAR CELL LEUKEMIA) “active; positive”; (Species: RAT, Strain/Sex: F344/MALE, Route: INHALATION, Dose: 0, 200, 400 PPM 6 HR/D, 5 D/WK FOR 103 WK, Dose: 0, 200, 400 PPM 6 HR/D, 5 D/WK FOR 103 WK, Tumor Site: Type of Lesion: HEMATOPOIETIC SYSTEM: MONONUCLEAR CELL LEUKEMIA) “active; positive”.
Regarding `ClC1=C(Cl)[C@]2(Cl)C3C(Cl)C(Cl)CC3[C@@]1(Cl)C2(Cl)Cl` (some centres not stated), the carcinogen call reads like this: (Species: MOUSE, Strain/Sex: B6C3F1/FEMALE, Route: ORAL, Dose: 0, 30.1, 63.8 PPM IN DIET, TWA, Dose: 0, 30.1, 63.8 PPM IN DIET, TWA, Tumor Site: Type of Lesion: LIVER: HEPATOCELLULAR CARCINOMA) “active; positive”; (Species: MOUSE, Strain/Sex: B6C3F1/MALE, Route: ORAL, Dose: 0, 29.9, 56.2 PPM IN DIET, TWA, Dose: 0, 29.9, 56.2 PPM IN DIET, TWA, Tumor Site: Type of Lesion: LIVER: HEPATOCELLULAR CARCINOMA) “active; positive”; (Species: MOUSE, Strain/Sex: B6C3F1/MALE, Route: ORAL, Dose: 0, 55 PPM IN DIET BEGINNING AT 63 D OF AGE, AT 8 MO OF AGE DOSE INCREASED TO 60 PPM AND CONTINUED UNTIL 491 D OF AGE (ST, Tumor Site: Type of Lesion: LIVER: HEPATOCELLULAR ADENOMA, HEPATOCELLULAR CARCINOMA) “active; positive”; (Species: MOUSE, Strain/Sex: B6C3F1/MALE, Route: ORAL, Dose: 0, 55 PPM IN DIET BEGINNING AT 63 D OF AGE, AT 8 MO OF AGE DOSE WAS INCREASED TO 60 PPM FOR DURATION OF STUDY (STUDY DUR, Tumor Site: Type of Lesion: LIVER: HEPATOCELLULAR ADENOMA, HEPATOCELLULAR CARCINOMA) “active; positive”; (Species: MOUSE, Strain/Sex: B6D2F1/MALE, Route: ORAL, Dose: 0, 55 PPM IN DIET BEGINNING AT 63 D OF AGE, AT 8 MO OF AGE DOSE INCREASED TO 60 PPM AND CONTINUED UNTIL 491 D OF AGE (ST, Tumor Site: Type of Lesion: LIVER: HEPATOCELLULAR ADENOMA, HEPATOCELLULAR CARCINOMA) “active; positive”; (Species: MOUSE, Strain/Sex: B6D2F1/MALE, Route: ORAL, Dose: 0, 55 PPM IN DIET BEGINNING AT 63 D OF AGE, AT 8 MO OF AGE DOSE WAS INCREASED TO 60 PPM FOR DURATION OF STUDY (STUDY DUR, Tumor Site: Type of Lesion: LIVER: HEPATOCELLULAR ADENOMA, HEPATOCELLULAR CARCINOMA) “active; positive”. Besides, the carcinogen call by setting is: (Species: MOUSE, Strain/Sex: CD-1/MALE,FEMALE, Route: DIET, Dose: 0, 5, 25, 50 MG/KG FOR 18 MO, Tumor Site: Type of Lesion: LIVER: HEPATOCELLULAR CARCINOMA) “active; positive”; (Species: RAT, Strain/Sex: OSBORNE-MENDEL/FEMALE, Route: ORAL, Dose: 0, 120.8, 241.5PPM IN DIET, TWA, Dose: 0, 120.8, 241.5PPM IN DIET, TWA) “inactive; negative”; (Species: RAT, Strain/Sex: OSBORNE-MENDEL/MALE, Route: ORAL, Dose: 0, 203.5, 407.0PPM IN DIET, TWA, Dose: 0, 203.5, 407.0PPM IN DIET, TWA) “inactive; negative”.
